Reference: US20220323427A1, “SOMATOSTATIN RECEPTOR TYPE 5 AGONIST FOR THE TREATMENT OF HYPERINSULINISM” (Crinetics Pharmaceuticals, Inc., priority 2021, published 2022)

What was measured:
major human CYP enzymes = experiment: CYP inhibition or induction; assay type: in vitro ADME; settings: including CYP2C9 and CYP3A4
[1] = biological target: T1, human somatostatin receptor subtype 2 (Homo sapiens, UniProt P30874); experiment: cAMP assay for SST2R; assay type: cell-based; settings: inhibition of cAMP, CHO-K1 cells expressing human SST2; read-out: SST2 potency (EC50; nM)
T1 construct: expressed in transfected cells
Excerpt: General overview: All five SSTR subtypes are Gi coupled G-protein coupled receptors (GPCRs) that lead to decreases in intracellular cyclic AMP (cAMP) when activated by an agonist. Therefore, measurement of intracellular cAMP levels can be used to assess whether compounds of the invention are agonists of SSTR subtypes (John Kelly, Troy Stevens, W. Joseph Thompson, and Roland Seifert, Current Protocols in Pharmacology, 2005, 2.2.1-2.2). One example of an intracellular cAMP assay is described below.
Four days prior to the assay, 5,000 Chinese hamster ovary cells (CHO-K1, ATCC #CCL-61) stably expressing the human somatostatin receptor subtype 2 are plated in each well of a 96-well tissue culture-treated plate in Ham's F12 growth media (ThermoFisher #10-080-CM) supplemented with 10% donor bovine serum (Gemini Bio-Products #100-506), 100 U/mL penicillin; 100 ug/mL streptomycin; 2 mM L-glutamine (Gemini Bio-Products #400-110) and 0.2 mg/mL hygromycin B (GoldBio #31282-04-9). The cells are cultured at 37° C., 5% CO2 and 95% humidity. […] The time-resolved fluorescent signal is read with a Tecan M1000Pro multiplate reader. The intracellular cAMP concentrations are calculated by regression to a standard curve and are plotted vs. the concentration of the compounds of the invention and the EC50 of the compounds are calculated using standard methods. […]

T1 sequence (P30874 whole entry): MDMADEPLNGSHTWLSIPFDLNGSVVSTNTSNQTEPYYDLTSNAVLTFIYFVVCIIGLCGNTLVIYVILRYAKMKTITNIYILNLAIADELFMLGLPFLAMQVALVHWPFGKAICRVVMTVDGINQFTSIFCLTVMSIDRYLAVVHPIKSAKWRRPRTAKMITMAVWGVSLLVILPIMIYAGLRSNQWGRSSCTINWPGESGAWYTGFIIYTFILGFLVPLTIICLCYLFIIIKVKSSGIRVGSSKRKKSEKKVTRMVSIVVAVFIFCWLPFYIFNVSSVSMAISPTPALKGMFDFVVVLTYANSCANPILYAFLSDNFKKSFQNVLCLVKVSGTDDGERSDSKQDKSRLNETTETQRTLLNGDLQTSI

`C[C@H](NC(=O)c1cnc(C#N)c(-c2cc(F)cc(F)c2)c1N1CC[C@H](N)C1)C(F)(F)F` [Compound 1, 4-[(3S)-3-aminopyrrolidin-1-yl]-6-cyano-5-(3,5-difluorophenyl)-N-[(2S)-1,1,1-trifluoropropan-2-yl]pyridine-3-carboxamide] was tested, and the “Potential for inhibition or induction of the major human CYP enzymes” value (major human CYP enzymes) was “little or no potential for inhibition or induction” and the EC50 [1] was over 100 nM.
